Measurements published in article PMC11171921, “NinaB and BCO Collaboratively Participate in the β-Carotene Catabolism in Crustaceans: A Case Study on Chinese Mitten Crab Eriocheir sinensis” (International Journal of Molecular Sciences, 2024).

Target: T1, EsNinaBl (Eriocheir sinensis, UniProt Z9UJ24V2T0)
T1 construct: full ORF in pGEX-4T (GST fusion vector), expressed in beta-carotene-producing E. coli BL(DE3) with pAC-BETAipi; primer-encoded N-terminus MSTDEGG, C-terminus FIPAEAQ
T1 sequence (Z9UJ24V2T0 1-523): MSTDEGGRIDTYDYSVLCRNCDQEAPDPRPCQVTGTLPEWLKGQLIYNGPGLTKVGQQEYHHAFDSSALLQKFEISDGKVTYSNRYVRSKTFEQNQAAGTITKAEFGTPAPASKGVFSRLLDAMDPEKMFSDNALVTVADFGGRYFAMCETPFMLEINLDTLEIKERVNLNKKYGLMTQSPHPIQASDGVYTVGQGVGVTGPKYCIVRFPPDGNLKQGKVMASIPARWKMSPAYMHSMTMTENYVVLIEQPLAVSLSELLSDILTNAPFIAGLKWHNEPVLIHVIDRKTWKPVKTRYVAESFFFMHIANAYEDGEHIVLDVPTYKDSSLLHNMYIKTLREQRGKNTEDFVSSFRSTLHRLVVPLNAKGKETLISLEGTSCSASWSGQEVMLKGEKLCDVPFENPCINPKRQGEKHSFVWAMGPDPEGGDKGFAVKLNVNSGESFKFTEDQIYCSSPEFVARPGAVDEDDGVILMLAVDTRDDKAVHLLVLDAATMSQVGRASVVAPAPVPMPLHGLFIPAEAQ
Test: beta-carotene degradation and decolorization in beta-carotene-accumulating E. coli
Assay type: cell-based
Conditions: co-expression with pAC-BETAipi; […] IPTG induction; GST-fusion vector; products not identified

## CC1=C(/C=C/C(C)=C/C=C/C(C)=C/C=C/C=C(C)/C=C/C=C(C)/C=C/C2=C(C)CCCC2(C)C)C(C)(C)CCC1 [β-carotene]
  beta-carotene degradation and decolorization in beta-carotene-accumulating E. co: evident decolorization was observed in the β-carotene-accumulated bacteria expressing EsNinaBl
